Results as given in patent US20210161788A1, “Anti-Blue Light Dermal Topical Composition and Applications Thereof” (Taiwan AC Scientific Inc., priority 2019, published 2021).

Legend:
[1] = Penetration rates of UV, blue light and visual light and shading rate of blue light, UV/blue-light detector; assay type: physicochemical; settings: for Penetration rate UV: 380-400 nm; for Penetration rate BL: 405-425 nm; for Penetration rate VL: 520-540 nm; for Shading rate of blue light: VL penetration minus BL penetration
Procedure: Solutions with different concentrations prepared by terephthalylidene dicamphor sulfonic acid are tested with a UV/blue-light detector (Actor-Mater Co., Ltd.) for penetration rates of ultraviolet (UV), blue light (BL) and visual light (VL). The shading rate of blue light is calculated by the formula as follows:
Shading rate of blue light (%)=penetration rate of visual light−penetration rate of blue light
where wavelength ranges of UV, blue light and visual light tested with a UV/blue-light detector (Actor-Mater Co., Ltd.) are 380-400 nm, 405-425 nm and 520-540 nm, respectively.
The 3% terephthalylidene dicamphor sulfonic acid solution (B) and the 3% rutoside solution (C) are prepared by ingredients as shown in formulas in Table 4. Referring to test modes in Embodiment 1 to Embodiment 3, the anti-blue light effects and the shading rates of blue light for solutions (B) and (C) are tested, respectively.
The synergistic effect of rutoside and terephthalylidene dicamphor sulfonic acid on anti-blue light is explored in this embodiment. Prepared by rutoside and terephthalylidene dicamphor sulfonic acid, the mixed solutions with different concentrations are tested for shading rates of blue light according to the test mode as shown in Embodiment 3.

Human Skin = assay: Evaluation of the effect on human skin by the Janus facial analysis system; assay type: in vivo; settings: 3% solution applied on skin
Procedure: Evaluation method: A subject who has applied the 3% terephthalylidene dicamphor sulfonic acid solution on skin surfaces for seven straight days is tested by the Janus facial analysis system for status change of their skin.

- Penetration rate UV ([1]; 0.5% (W/W) solution): 3.00 ± 0.00%
- Penetration rate BL ([1]; 0.5% (W/W) solution): 87.33 ± 0.58%
- Penetration rate VL ([1]; 0.5% (W/W) solution): 99.00 ± 0.00%
- Shading rate of blue light ([1]; 0.5% (W/W) solution): 11.67 ± 0.58%
- Penetration rate UV ([1]; 1% (W/W) solution): 1.67 ± 0.58%
- Penetration rate BL ([1]; 1% (W/W) solution): 77.00 ± 1.00%
- Penetration rate VL ([1]; 1% (W/W) solution): 98.67 ± 0.58%
- Shading rate of blue light ([1]; 1% (W/W) solution): 21.67 ± 0.58%
- Penetration rate UV ([1]; 3% (W/W) solution): 0.00 ± 0.00%
- Penetration rate BL ([1]; 3% (W/W) solution): 50.00 ± 1.00%
- Penetration rate VL ([1]; 3% (W/W) solution): 97.33 ± 0.58%
- Shading rate of blue light ([1]; 3% (W/W) solution): 47.33 ± 0.58%
- Penetration rate UV ([1]; 5% (W/W) solution): 0.00 ± 0.00%
- Penetration rate BL ([1]; 5% (W/W) solution): 42.33 ± 0.58%
- Penetration rate VL ([1]; 5% (W/W) solution): 97.33 ± 0.58%
- Shading rate of blue light ([1]; 5% (W/W) solution): 55.00 ± 1.00%
- Penetration rate UV ([1]; 10% (W/W) solution): 0.00 ± 0.00%
- Penetration rate BL ([1]; 10% (W/W) solution): 26.33 ± 1.15%
- Penetration rate VL ([1]; 10% (W/W) solution): 95.00 ± 1.00%
- Shading rate of blue light ([1]; 10% (W/W) solution): 68.67 ± 0.58%
- Penetration rate UV ([1]; 20% (W/W) solution): 0.00 ± 0.00%
- Penetration rate BL ([1]; 20% (W/W) solution): 16.00 ± 1.00%
- Penetration rate VL ([1]; 20% (W/W) solution): 93.00 ± 1.00%
- Shading rate of blue light ([1]; 20% (W/W) solution): 77.00 ± 0.00%
- Average shading rate of blue light ([1]; content of anti-blue light substances in a solution 1%): 22%
- Average shading rate of blue light ([1]; content of anti-blue light substances in a solution 3%): 47%
SMILES: CC1(C)C2CCC1(CS(=O)(=O)O)C(=O)C2=Cc1ccc(C=C2C(=O)C3(CS(=O)(=O)O)CCC2C3(C)C)cc1 (stereo in doubt) [terephthalylidene dicamphor sulfonic acid]
- Reduction of the total average of fine wrinkles (Human Skin; after 7 straight days vs before use): 7%
- Count of melanin pigmentations at the forehead (Human Skin; after 7 straight days, before use 42): 25
- Count of melanin pigmentations at one side of the face (Human Skin; after 7 straight days, before use 49): 42
- Count of melanin pigmentations at cheeks (Human Skin; after 7 straight days, before use 56): 44
- Fine wrinkles under eyelids (Human Skin; after 7 straight days, before use 57): 54
- Total average fine wrinkles (Human Skin; after 7 straight days, before use 82): 75
- Crow's feet (Human Skin; after 7 straight days, before use 100): 88
